As usually defined, the MIC is the lowest concentration that inhibits growth of the organism. A higher MIC goes with a need for much substance. What is called ED50 is the dose that gives a 50% effect, or the effect in half of the subjects.

Converted amounts (≈) assume the structure as drawn.

What all share (type): functional
One test concerns Enterococcus sp. Nature of the test: Minimum inhibitory concentration against Enterococcus species. was determined.
The test system of test [1] is Staphylococcus aureus. Nature of the test: Minimum inhibitory concentration against Staphylococcus aureus was determined.
Test [2] has as its system Streptococcus. Nature of the test: Minimum inhibitory concentration against Streptococcus species. was determined.
The next test has as its system Candida albicans. As to the kind of experiment: Minimum inhibitory concentration against Candida albicans was determined.
Test [3] relates to Enterococcus faecium. As to the kind of experiment: Minimum inhibitory concentration against Enterococcus faecium was determined; Range is […] ug/mL.
The subject of test [4] is Enterococcus faecalis. Nature of the test: Minimum inhibitory concentration against Enterococcus faecalis was determined; Range is […] ug/mL.
The nature of test [5]: Minimum inhibitory concentration against Gram(-) sp. was determined; Range is […] ug/mL.
Test [6] relates to Staphylococcus aureus. As to the kind of experiment: Minimum inhibitory concentration against Staphylococcus aureus (MRCNS) was determined.
Test [7] relates to Staphylococcus aureus. Nature of the test: Minimum inhibitory concentration against Staphylococcus aureus (MRSA) was determined; Range is 32-64 ug/mL.
In test [8] the test system is Staphylococcus aureus. Nature of the test: Minimum inhibitory concentration against Staphylococcus aureus (MSCNS) was determined.
Test [9] relates to Streptococcus. As to the kind of experiment: Minimum inhibitory concentration against Streptococcus was determined; […].
The test system of test [10] is Staphylococcus aureus. Nature of the test: Minimum inhibitory concentration against Staphylococcus aureus (MSSA) was determined; Range is 32-64 ug/mL.
In test [11] the test system is Enterococcus faecium. Nature of the test: Minimum inhibitory concentration against Enterococcus faecium was determined; Range is 2-4 ug/mL.
Test [12] concerns Enterococcus faecalis. Nature of the test: Minimum inhibitory concentration against Enterococcus faecalis was determined.
Test [13] in a line: Minimum inhibitory concentration against Gram(-) sp. was determined.
In a further test the test system is Mus musculus. Nature of the test: In vivo activity against Staphylococcus aureus smith was determined after iv administration in mice. The following applies: Mus musculus, iv; read-out: ED50.
Test [14] has as its system Staphylococcus aureus. As to the kind of experiment: Minimum inhibitory concentration against Staphylococcus aureus smith.
Test [15] deals with Staphylococcus aureus. As to the kind of experiment: Minimum inhibitory concentration against Staphylococcus aureus (MRCNS) was determined; Range is 1-4 ug/mL.
In test [16] the test system is Staphylococcus aureus. As to the kind of experiment: Minimum inhibitory concentration against Staphylococcus aureus (MRSA) was determined.
Test [17] has as its system Staphylococcus aureus. Nature of the test: Minimum inhibitory concentration against Staphylococcus aureus (MSCNS) was determined; Range is 0.5-1 ug/mL.
In test [18] the test system is Streptococcus. As to the kind of experiment: Minimum inhibitory concentration against Streptococcus was determined.
In test [19] the test system is Staphylococcus aureus. Nature of the test: Minimum inhibitory concentration against Staphylococcus aureus (MSSA) was determined; Range is 2-4 ug/mL.
For test [20], the system named is Enterococcus faecalis. As to the kind of experiment: Minimum inhibitory concentration against Enterococcus faecalis was determined; Range is 2-4 ug/mL.
A short description of test [21]: Minimum inhibitory concentration against Gram(-) sp. was determined; Range is 32->128 ug/mL.
In test [22] the test system is Staphylococcus aureus. As to the kind of experiment: Minimum inhibitory concentration against Staphylococcus aureus (MRCNS) was determined; Range is 0.25-1 ug/mL.
The subject of test [23] is Staphylococcus aureus. Nature of the test: Minimum inhibitory concentration against Staphylococcus aureus (MRSA) was determined; Range is […] ug/mL.
Test [24] relates to Staphylococcus aureus. Nature of the test: Minimum inhibitory concentration against Staphylococcus aureus (MSCNS) was determined; Range is <=0.12-0.5 ug/mL.
Test [25] concerns Staphylococcus aureus. Nature of the test: Minimum inhibitory concentration against Staphylococcus aureus (MSSA) was determined; Range is 1-4 ug/mL.
The subject of test [26] is Enterococcus faecalis. As to the kind of experiment: Minimum inhibitory concentration against Enterococcus faecalis was determined; Range is 8-16 ug/mL.
The subject of test [27] is Staphylococcus aureus. As to the kind of experiment: Minimum inhibitory concentration against Staphylococcus aureus (MSCNS) was determined; Range is 1-8 ug/mL.
For test [28], the system named is Staphylococcus aureus. As to the kind of experiment: Minimum inhibitory concentration against Staphylococcus aureus (MRSA) was determined; Range is 4-8 ug/mL.
In test [29] the test system is Streptococcus. Nature of the test: Minimum inhibitory concentration against Streptococcus was determined; Range is <=0.12-2 ug/mL.
The test system of test [30] is Staphylococcus aureus. Nature of the test: Minimum inhibitory concentration against Staphylococcus aureus (MSSA) was determined; Range is 4-8 ug/mL.
Test [31] relates to Enterococcus faecium. Nature of the test: Minimum inhibitory concentration against Enterococcus faecium was determined; Range is 8-16 ug/mL.

As for `C[C@@H](c1ccccc1)[C@@H]1NC(=O)CNC(=O)[C@H](CO)NC(=O)[C@@H]([C@@H](O)[C@@H]2CN=C(N)N2[C@H]2O[C@H](O)[C@@H](O)[C@H](O)[C@@H]2O)NC(=O)[C@H]([C@@H](O)[C@@H]2CN=C(N)N2)NC(=O)[C@@H](Cc2ccc(O[C@H]3O[C@H](CO)[C@@H](O[C@H]4O[C@H](CO)[C@@H](O)[C@H](O)[C@@H]4O)[C@H](O)[C@@H]3O)cc2)NC1=O`, the MIC against Enterococcus sp. was 128 µg/mL (≈ 99.9 µM); against Staphylococcus aureus [1] it was more than 128 µg/mL; with Streptococcus [2] it was 32 µg/mL (≈ 25 µM).

On to `CC(C)CC(=O)O[C@@H]1[C@H](O)[C@@H](O[C@H]2[C@H](O)[C@H](O)[C@@H](Oc3ccc(C[C@H]4NC(=O)[C@H]([C@@H](C)c5ccccc5)NC(=O)CNC(=O)[C@H](CO)NC(=O)[C@@H]([C@@H](O)[C@@H]5CN=C(N)N5[C@H]5O[C@H](O)[C@@H](O)[C@H](O)[C@@H]5O)NC(=O)[C@H]([C@@H](O)[C@@H]5CN=C(N)N5)NC4=O)cc3)O[C@@H]2CO)O[C@H](CO)[C@H]1O`, for which the MIC came to 64 µg/mL (≈ 46.9 µM) with Enterococcus sp., 8 µg/mL (≈ 5.86 µM) in the test on Staphylococcus aureus [1] and 8 µg/mL (≈ 5.86 µM) in the test with Streptococcus [2].

For `C[C@@H](c1ccccc1)[C@@H]1NC(=O)CNC(=O)[C@H](CO)NC(=O)[C@@H]([C@@H](O)[C@@H]2CN=C(N)N2[C@H]2O[C@H](O)[C@@H](O)[C@H](O)[C@@H]2O)NC(=O)[C@H]([C@@H](O)[C@@H]2CN=C(N)N2)NC(=O)[C@@H](Cc2ccc(O[C@H]3O[C@H](CO)[C@@H](O[C@H]4O[C@H](CO)[C@@H](O)[C@H](O)[C@@H]4OCc4ccc(OCc5ccccc5)cc4)[C@H](O)[C@@H]3O)cc2)NC1=O`, the minimum inhibitory concentration (MIC) against Candida albicans was 128 µg/mL (≈ 86.6 µM); with Enterococcus faecium [3], 16 µg/mL (≈ 10.8 µM); with Enterococcus faecalis [4], 64 µg/mL (≈ 43.3 µM); in test [5] it was more than 128 µg/mL; against Staphylococcus aureus [6], 32 µg/mL (≈ 21.7 µM); against Staphylococcus aureus [7], 32 µg/mL (≈ 21.7 µM). Moreover, the MIC with Staphylococcus aureus [8] was 16 µg/mL (≈ 10.8 µM); against Streptococcus [9] it was 2 µg/mL (≈ 1.35 µM); with Staphylococcus aureus [10], 32 µg/mL (≈ 21.7 µM).

On to `C[C@@H](c1ccccc1)[C@@H]1NC(=O)CNC(=O)[C@H](CO)NC(=O)[C@@H]([C@@H](O)[C@@H]2CN=C(N)N2[C@H]2O[C@H](O)[C@@H](O)[C@H](O)[C@@H]2O)NC(=O)[C@H]([C@@H](O)[C@@H]2CN=C(N)N2)NC(=O)[C@@H](Cc2ccc(O[C@H]3O[C@H](CO)[C@@H](OC4O[C@H](COCc5ccc(OCc6ccccc6)cc5)[C@@H](O)[C@H](O)[C@@H]4O)[C@H](O)[C@@H]3O)cc2)NC1=O` (some centres not stated), for which the MIC is more than 128 µg/mL in the test with Candida albicans; 2 µg/mL (≈ 1.35 µM) with Enterococcus faecium [11]; 4 µg/mL (≈ 2.71 µM) against Enterococcus faecalis [12]; more than 128 µg/mL in test [13]; 2 µg/mL (≈ 1.35 µM) in the test on Staphylococcus aureus [14]; 1 µg/mL (≈ 0.677 µM) in the test on Staphylococcus aureus [15]. Also, the MIC with Staphylococcus aureus [16] is 4 µg/mL (≈ 2.71 µM); in the test with Staphylococcus aureus [17] it was 0.5 µg/mL (≈ 0.338 µM); against Streptococcus [18] it was not above 0.12 µg/mL; in the test on Staphylococcus aureus [19], 2 µg/mL (≈ 1.35 µM). In addition, the ED50 in the test on Mus musculus is 0.25 mg/kg.

As to `CC(C)CC(=O)O[C@@H]1[C@@H](O[C@H]2[C@H](O)[C@H](O)[C@@H](Oc3ccc(C[C@H]4NC(=O)[C@H]([C@@H](C)c5ccccc5)NC(=O)CNC(=O)[C@H](CO)NC(=O)[C@@H]([C@@H](O)[C@@H]5CN=C(N)N5[C@H]5O[C@H](O)[C@@H](O)[C@H](O)[C@@H]5O)NC(=O)[C@H]([C@@H](O)[C@@H]5CN=C(N)N5)NC4=O)cc3)O[C@@H]2CO)O[C@H](CO)[C@@H](O)[C@@H]1O`, the MIC in the test on Enterococcus sp. is more than 128 µg/mL; with Staphylococcus aureus [1], 8 µg/mL (≈ 5.86 µM); in the test with Streptococcus [2], 8 µg/mL (≈ 5.86 µM).

Take `C[C@@H](c1ccccc1)[C@@H]1NC(=O)CNC(=O)[C@H](CO)NC(=O)[C@@H]([C@@H](O)[C@@H]2CN=C(N)N2[C@H]2O[C@H](O)[C@@H](O)[C@H](O)[C@@H]2O)NC(=O)[C@H]([C@@H](O)[C@@H]2CN=C(N)N2)NC(=O)[C@@H](Cc2ccc(O[C@H]3O[C@H](CO)[C@@H](O[C@H]4O[C@H](CO)[C@@H](OCc5ccc(OCc6ccccc6)cc5)[C@H](O)[C@@H]4O)[C@H](O)[C@@H]3O)cc2)NC1=O`: the MIC in the test on Candida albicans was more than 128 µg/mL; in the test on Enterococcus faecium [11] it was 2 µg/mL (≈ 1.35 µM); in the test on Enterococcus faecalis [20], 2 µg/mL (≈ 1.35 µM); in test [21], 32 µg/mL (≈ 21.7 µM); against Staphylococcus aureus [14], 1 µg/mL (≈ 0.677 µM); against Staphylococcus aureus [22], 0.25 µg/mL (≈ 0.169 µM). In addition, the MIC against Staphylococcus aureus [23] is 1 µg/mL (≈ 0.677 µM); in the test on Staphylococcus aureus [24], not above 0.12 µg/mL; against Streptococcus [18], less than 0.12 µg/mL; against Staphylococcus aureus [25], 1 µg/mL (≈ 0.677 µM). Further, in the test on Mus musculus, the ED50 was 0.06 mg/kg.

As for `CC(C)CC(=O)O[C@H]1[C@H](O)[C@H](O)[C@@H](O[C@H]2[C@H](O)[C@H](O)[C@@H](Oc3ccc(C[C@H]4NC(=O)[C@H]([C@@H](C)c5ccccc5)NC(=O)CNC(=O)[C@H](CO)NC(=O)[C@@H]([C@@H](O)[C@@H]5CN=C(N)N5[C@H]5O[C@H](O)[C@@H](O)[C@H](O)[C@@H]5O)NC(=O)[C@H]([C@@H](O)[C@@H]5CN=C(N)N5)NC4=O)cc3)O[C@@H]2CO)O[C@@H]1CO`, the minimum inhibitory concentration (MIC) was determined as 4 µg/mL (≈ 2.93 µM) against Enterococcus sp., 4 µg/mL (≈ 2.93 µM) in the test on Staphylococcus aureus [1] and 2 µg/mL (≈ 1.46 µM) against Streptococcus [2].

Consider `C[C@@H](c1ccccc1)[C@@H]1NC(=O)CNC(=O)[C@H](CO)NC(=O)[C@@H]([C@@H](O)[C@@H]2CN=C(N)N2[C@H]2O[C@H](O)[C@@H](O)[C@H](O)[C@@H]2O)NC(=O)[C@H]([C@@H](O)[C@@H]2CN=C(N)N2)NC(=O)[C@@H](Cc2ccc(O[C@H]3O[C@H](CO)[C@@H](O[C@H]4O[C@H](CO)[C@@H](O)[C@H](OCc5ccc(OCc6ccccc6)cc5)[C@@H]4O)[C@H](O)[C@@H]3O)cc2)NC1=O`, for which the minimum inhibitory concentration (MIC) against Candida albicans was more than 128 µg/mL; against Enterococcus faecalis [26], 8 µg/mL (≈ 5.41 µM); in test [13], more than 128 µg/mL; against Staphylococcus aureus [6], 4 µg/mL (≈ 2.71 µM); in the test with Staphylococcus aureus [27], 1 µg/mL (≈ 0.677 µM); against Staphylococcus aureus [28], 4 µg/mL (≈ 2.71 µM). Moreover, the MIC is not above 0.12 µg/mL with Streptococcus [29], 4 µg/mL (≈ 2.71 µM) against Staphylococcus aureus [30] and 8 µg/mL (≈ 5.41 µM) in the test on Enterococcus faecium [31].

These data come from ChEMBL document CHEMBL1136657, “Novel ether derivatives of mannopeptimycin glycopeptide antibiotic” (2003).
